According to patent publication US6426093B1, “Synergistic biocidal activity if ternary complexes of negatively-charged biocides (component A), transition metal ions (component B), and neutral chelators (component C)” (Yissum Research Development Company of the Hebrew …, priority 1998, dated 2002):

What was measured:
[1] = tested on: Bone marrow-derived mast cells (MC-9 line); test: Killing of mast cells, survival by trypan blue method; assay type: cell-based, mice; conditions: 30 minutes
Protocol: Bone marrow-derived mast cells (MC-9 line) were obtained from the femora of mice (line C57BL/6). The cells were cultured at 37° C. in humidified atmosphere containing 5% of CO2 in RPMI-1640, supplemented with 10% fetal calf serum, 2 mM L-glutamine, 100 U/ml penicillin, 100 μg/ml streptomycin, and 50 μM β-2-mercaptoethanol. Mast cells were grown (14 days), washed and resuspended in reaction medium (only RPMI-1640) and treated for 30 minutes as indicated above. The survival was determined by the trypan blue method.

[2] = tested on: E. coli; test: E. coli inactivation, survival by colony-forming ability; assay type: cell-based
Protocol: A sample of bacteria from the stock solution was diluted 100-fold in “reaction buffer” to a final concentration of 0.6 OD600 (4.8×10^6 cells/ml). Various agents were added to the bacteria following 15 minutes of preincubation at 37° C. Aliquots were removed at indicated time points into “termination buffer” to stop the reaction, and diluted by a factor of 50 to 10^6. Samples from each dilution were then plated on LB agar and grown overnight at 37° C. Each sample was plated at least five times. The colonies formed were then counted. Survival curves were evaluated from colony counts. Each experiment was repeated at least three times, and the mean values and standard error of triplicates were calculated.
In the experiments shown in FIG. 3, all the incubation mixtures contained glucose (0.5% w/v) and MgSO4 (1 mM) in HEPES buffer (10 mM, pH=7.4), and bacteria (4.8×10^6 cells/ml). The cells were exposed to the combination of PCP (0.5 mM) and Fe(OP)3 (5 μM)—designated open triangles; or with the addition of DMSO (5%)—designated closed triangles; or with SOD (50 U/ml)—designated open circles. The results presented in Table 1, which were obtained using the experimental conditions and methods described above in this example, show the effect of different concentrations of PCP and copper complex and their combinations on the inactivation of E. coli.

For [Fe+2].c1cnc2c(c1)ccc1cccnc12.c1cnc2c(c1)ccc1cccnc12.c1cnc2c(c1)ccc1cccnc12 [Fe^II (OP)3], which “Survival (%)” value ([1]; Fe^II (OP)3 100 (unit not given)) is on record?
The value was 95.4%.

Which “Survival (%)” value ([1]; PCP 0.5 mM) does the source give for Oc1c(Cl)c(Cl)c(Cl)c(Cl)c1Cl [PCP, Pentachlorophenol] here?
Its value is 90.5%.

And the “Survival (%)” value ([2]; PCP 0.4 mM)?
The value was 95.6%.

[Cu+2].c1cnc2c(c1)ccc1cccnc12.c1cnc2c(c1)ccc1cccnc12.c1cnc2c(c1)ccc1cccnc12 [[Cu^II (OP)3]^2+complex, 1,10-phenanthroline-copper [Cu^II (OP)3]^2+complex] was tested. Which “activity relative to the analogous iron complex” value ([2]; in combination with PCP, bacterial inactivation) did it give?
Its value is 100 times.

With [Cu+2].c1cnc2c(c1)ccc1cccnc12.c1cnc2c(c1)ccc1cccnc12 [Cu^II (OP)2] as the compound, how does the “Survival (%)” value ([2]; Cu^II (OP)2 1 μM) read?
The value was 99.5%.
